Test results published in patent publication US20250236616A1, “IMMUNOMODULATING AZALIDES” (Zoetis Services LLC, priority 2021, published 2025).

Assays:
Format in all cases: cell-based
[1] = test system: TNF-α; assay: Whole bovine blood assay, LPS-induced TNF-α; settings: fresh whole bovine blood, LPS stimulant; top drug concentration 250 μM
Procedure, shortened: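 Fresh heparinized bovine whole blood was preincubated with compound 4 h at 37 °C, then stimulated with LPS (final 1 μg/mL) for 18 h at 37 °C. Plasma TNF-α was quantified by MSD U-Plex chemiluminescent immunoassay, normalized to total protein (BCA), and IC50 taken for LPS-induced TNF-α inhibition.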

[2] = test system: IL-6; assay: Whole bovine blood assay, LPS-induced IL-6; settings: fresh whole bovine blood, LPS stimulant; top drug concentration 250 μM
[3] = test system: IL-1β; assay: Whole bovine blood assay, LPS-induced IL-1β (inhibition / overstimulation); settings: drug concentration giving overstimulation (OS) of LPS-induced IL-1β, top concentration 250 μM
Protocol: Whole Blood Assay-Fresh whole bovine blood samples were collected into heparinized vacutainer tubes. Assay plates were prepared with 25 μL of drug diluted in PBS at varying concentration in 96 round bottom wells, then 225 μL of blood was added and plates incubated at 37° C. for 4 hours. Cells were stimulated with LPS (or PBS for controls) by adding 25 μL to the plates at a final concentration of 1 μg/mL and incubated at 37° C. for 18 hours. To collect plasma, plates were centrifuged at 2,000×g for 10 minutes and 100 μL of supernatant was transferred to a 96 well polypropylene plate that was sealed and stored at −80° C. Samples were assayed for cytokines using the Meso Scale Discovery (MSD) platform (described below). This same MSD platform was used to assess cytokines in the plasma collected directly from drug treated animals.
Cytokine Detection—An MSD U-Plex cytokine assay was developed following the MSD U-Plex protocol guide and included biotinylated capture antibodies against: bovine Interleukin (IL)-1β (Biorad), bovine IL-6 (R&D Systems) and bovine tumor necrosis factor (TNF)-α (R&D Systems). The anti-IL-1β antibody was biotinylated using EZ-Link Sulfo-NHS-Biotin (Thermo Scientific) at a challenge ratio of 1:20 according to manufacturer instructions. Assay calibrators (Kingfisher) were diluted to a concentration of […] in control lithium heparin plasma, followed by 4-fold serial dilutions into plasma. The detection antibodies were sulfo-tagged following the MSD quick guide conjugation protocol using a challenge ratio of 1:20. Antibodies were used at the following concentrations: anti-IL-1β at 1 μg/mL, anti-IL-6 at 1 μg/mL and anti-TNF-α at 0.5 μg/mL. Cytokines were quantified according to manufacturer's instructions using a chemiluminescent readout. In brief, 0.5 mL of all biotinylated antibodies were diluted to 10 μg/mL with Diluent 100 and paired to their respective linkers by adding 750 μL of supplied Linker solution and incubated for 30 minutes followed by addition of Stop solution for another 30 minutes. The linked antibodies were then diluted 10-fold into Stop solution. Plates were coated by adding 50 μL of antibody solutions per well and incubated covered and shaking for 1 hour at room temperature. Plates were washed three times with PBS/Tween20 prior to samples or standards being added at 30 μL per well and incubated as above. Plates were washed three times before detection antibodies were added along with 2% goat and rabbit serum to block and incubated same as above. Plates were washed a further three times before addition of 150 μL 2X Read buffer and read immediately on the SI6000 instrument (MSD). For soluble protein levels, a BCA protein kit (Thermofisher) was used. The cytokine concentrations (pg/mL) were normalized to the total protein levels for each sample. [Bassel et. al., BMC Veterinary Research (2020) 16:168]
Therefore, a fresh whole bovine blood assay was developed with LPS as a stimulant (TLR-4 agonist) and with IL-1β and TNF-α as the read-out. Compounds of the invention were evaluated against a positive control for their ability to inhibit LPS-induced IL-1β and TNF-α as an overall evaluation of relative potency and modulation of target pathways.
For M9, the top dose of 500 μM was not high enough to determine an overstimulation of IL-1 B which was recorded as not applicable (n/a). The enhanced response indicates increased concentration of IL-1β cytokine at the drug concentration indicated. This is generally observed when compounds are out of range (high concentration) and stimulate a cellular toxicity signal. Further data supporting this hypothesis includes murine studies using a P. multocida infection in mice.
TNFα is a cell signaling protein, cytokine, that plays a key role in both acute and chronic inflammation. […]

Structure (SMILES) | IC50 [1] [µM] | IC50 [2] [µM] | minimal effective concentration [3] [µM]
CC[C@H]1OC(=O)[C@H](C)[C@@H](O)[C@H](C)[C@@H](O[C@@H]2O[C@H](C)C[C@H](N(C)S(=O)(=O)c3ccc(N4CCOCC4)nc3)[C@H]2Oc2ccc(F)cc2)[C@](C)(O)C[C@@H](C)CN[C@H](C)[C@@H](O)[C@]1(C)O [Example A-21] | 16 | 16 | 16
CC[C@H]1OC(=O)[C@H](C)[C@@H](O)[C@H](C)[C@@H](O[C@@H]2O[C@H](C)C[C@H](N(C)S(=O)(=O)c3cccs3)[C@H]2Oc2ccc(F)cc2)[C@](C)(O)C[C@@H](C)CN[C@H](C)[C@@H](O)[C@]1(C)O [Example A-22] | 30 | 22 | 16
CC[C@H]1OC(=O)[C@H](C)[C@@H](O)[C@H](C)[C@@H](O[C@@H]2O[C@H](C)C[C@H](N(C)S(=O)(=O)c3ccccc3)[C@H]2Oc2ccc(F)cc2)[C@](C)(O)C[C@@H](C)CN[C@H](C)[C@@H](O)[C@]1(C)O [Example A-23] | 36 | 22 | 16
CC[C@H]1OC(=O)[C@H](C)[C@@H](O)[C@H](C)[C@@H](O[C@@H]2O[C@H](C)C[C@H](N(C)S(=O)(=O)C3CC3)[C@H]2Oc2ccccc2)[C@](C)(O)C[C@@H](C)CN[C@H](C)[C@@H](O)[C@]1(C)O [Example A-32] |  | 167 | 100
CC[C@H]1OC(=O)[C@H](C)[C@@H](O[C@H]2C[C@@](C)(OC)[C@](O)(CNCCc3ccncc3)[C@H](C)O2)[C@H](C)[C@@H](O[C@@H]2O[C@H](C)C[C@H](N(C)S(=O)(=O)c3ccc(Cl)cc3)[C@H]2O)[C@](C)(O)C[C@@H](C)CN[C@H](C)[C@@H](O)[C@]1(C)O [Example B-29] |  | 54 | 12
CC[C@H]1OC(=O)[C@H](C)[C@@H](O[C@H]2C[C@@](C)(OC)[C@](O)(CNCCC3CCOCC3)[C@H](C)O2)[C@H](C)[C@@H](O[C@@H]2O[C@H](C)C[C@H](N(C)S(=O)(=O)c3ccc(Cl)cc3)[C@H]2O)[C@](C)(O)C[C@@H](C)CN[C@H](C)[C@@H](O)[C@]1(C)O [Example B-34] |  | 20 | 6
CCCNC[C@]1(O)[C@H](C)O[C@@H](O[C@H]2[C@H](C)[C@@H](O[C@@H]3O[C@H](C)C[C@H](N(C)S(=O)(=O)c4cnc(Cl)c(Br)c4)[C@H]3Oc3ccc(OC)cc3)[C@](C)(O)C[C@@H](C)CN[C@H](C)[C@@H](O)[C@](C)(O)[C@@H](CC)OC(=O)[C@@H]2C)C[C@@]1(C)OC [Example B-117] |  | 142 | 16
CCCNC[C@]1(O)[C@H](C)O[C@@H](O[C@H]2[C@H](C)[C@@H](O[C@@H]3O[C@H](C)C[C@H](N(C)S(=O)(=O)c4cnn(-c5ccc(C(F)(F)F)cn5)c4)[C@H]3Oc3ccc(OC)cc3)[C@](C)(O)C[C@@H](C)CN[C@H](C)[C@@H](O)[C@](C)(O)[C@@H](CC)OC(=O)[C@@H]2C)C[C@@]1(C)OC [Example B-123] |  | 4 | 6
CCCNC[C@]1(O)[C@H](C)O[C@@H](O[C@H]2[C@H](C)[C@@H](O[C@@H]3O[C@H](C)C[C@H](N(C)S(=O)(=O)c4cccnc4Cl)[C@H]3Oc3ccc(OC)cc3)[C@](C)(O)C[C@@H](C)CN[C@H](C)[C@@H](O)[C@](C)(O)[C@@H](CC)OC(=O)[C@@H]2C)C[C@@]1(C)OC [Example B-124] |  | 4 | 6
CC[C@H]1OC(=O)[C@H](C)[C@@H](O[C@H]2C[C@@](C)(OC)[C@](O)(CNCCS(C)(=O)=O)[C@H](C)O2)[C@H](C)[C@@H](O[C@@H]2O[C@H](C)C[C@H](N(C)S(=O)(=O)c3ccc(C(F)(F)F)cc3)[C@H]2O)[C@](C)(O)C[C@@H](C)CN[C@H](C)[C@@H](O)[C@]1(C)O [Example B-126] | 68 |  | 11
CC[C@H]1OC(=O)[C@H](C)[C@@H](O[C@H]2C[C@@](C)(OC)[C@](O)(CNCCOC(F)(F)F)[C@H](C)O2)[C@H](C)[C@@H](O[C@@H]2O[C@H](C)C[C@H](N(C)S(=O)(=O)Nc3ccc(C(F)(F)F)cc3)[C@H]2O)[C@](C)(O)C[C@@H](C)CN[C@H](C)[C@@H](O)[C@]1(C)O [Example B-129] | 10 |  | 2
CCCNC[C@]1(O)[C@H](C)O[C@@H](O[C@H]2[C@H](C)[C@@H](O[C@@H]3O[C@H](C)C[C@H](N(C)S(=O)(=O)c4ccccc4)[C@H]3Oc3cccc(CO)c3)[C@](C)(O)C[C@@H](C)CN[C@H](C)[C@@H](O)[C@](C)(O)[C@@H](CC)OC(=O)[C@@H]2C)C[C@@]1(C)OC [Example B-133] |  | 24 | 16
CCCNC[C@]1(O)[C@H](C)O[C@@H](O[C@H]2[C@H](C)[C@@H](O[C@@H]3O[C@H](C)C[C@H](N(C)S(N)(=O)=O)[C@H]3O)[C@](C)(O)C[C@@H](C)CN(CCC)[C@H](C)[C@@H](O)[C@](C)(O)[C@@H](CC)OC(=O)[C@@H]2C)C[C@@]1(C)OC [Example B-158] | 102 |  | >250
CC[C@H]1OC(=O)[C@H](C)[C@@H](O[C@H]2C[C@@](C)(OC)[C@](O)(CN3CCC3)[C@H](C)O2)[C@H](C)[C@@H](O[C@@H]2O[C@H](C)C[C@H](N(C)S(=O)(=O)c3ccc(Cl)cc3)[C@H]2O)[C@](C)(O)C[C@@H](C)CN[C@H](C)[C@@H](O)[C@]1(C)O [Example C-2] |  | 13 | 6
CC[C@H]1OC(=O)[C@H](C)[C@@H](O[C@H]2C[C@@](C)(OC)[C@](O)(Cn3ccnc3)[C@H](C)O2)[C@H](C)[C@@H](O[C@@H]2O[C@H](C)C[C@H](N(C)S(=O)(=O)c3ccc(Cl)cc3)[C@H]2O)[C@](C)(O)C[C@@H](C)CN[C@H](C)[C@@H](O)[C@]1(C)O [Example C-5] |  | 31 | 16
CCCN1C[C@H](C)C[C@@](C)(O)[C@H](O[C@@H]2O[C@H](C)C[C@H](N(C)S(N)(=O)=O)[C@H]2O)[C@@H](C)[C@H](O[C@H]2C[C@@](C)(OC)[C@](O)(CN3CCCCC3)[C@H](C)O2)[C@@H](C)C(=O)O[C@H](CC)[C@@](C)(O)[C@H](O)[C@H]1C [Example C-17] | 23 |  | 250
CC[C@H]1OC(=O)[C@H](C)[C@@H](O[C@H]2C[C@@](C)(OC)[C@](O)(CN3CCCCC3)[C@H](C)O2)[C@H](C)[C@@H](O[C@@H]2O[C@H](C)C[C@H](N(C)S(=O)(=O)Nc3ccccc3)[C@H]2O)[C@](C)(O)C[C@@H](C)CN(CC)[C@H](C)[C@@H](O)[C@]1(C)O [Example C-20] |  | 24 | 10
CC[C@H]1OC(=O)[C@H](C)[C@@H](O[C@H]2C[C@@](C)(OC)[C@](O)(CN3CCCCC3)[C@H](C)O2)[C@H](C)[C@@H](O[C@@H]2O[C@H](C)C[C@H](N(Cc3cccnc3)S(=O)(=O)Nc3ccc(C(F)(F)F)cc3)[C@H]2O)[C@](C)(O)C[C@@H](C)CN[C@H](C)[C@@H](O)[C@]1(C)O [Example C-39] | 15 |  | 6
CCCN([C@H]1C[C@@H](C)O[C@@H](O[C@@H]2[C@@H](C)[C@H](O[C@H]3C[C@@](C)(OC)[C@](O)(CN4CCCCC4)[C@H](C)O3)[C@@H](C)C(=O)O[C@H](CC)[C@@](C)(O)[C@H](O)[C@@H](C)NC[C@H](C)C[C@@]2(C)O)[C@@H]1O)S(=O)(=O)c1ccc(OC)cc1 [Example C-41] |  | 4 | >250
